Experimental data from patent US7148211B2, “Formulation for lipophilic agents” (Genzyme Corporation, priority 2002, dated 2006).

Legend:
[1] = tested on: elderly subjects with secondary hyperparathyroidism; assay: Open label study of elderly subjects with elevated blood PTH from secondary hyperparathyroidism; assay type: in vivo, human; conditions: oral 2.5 μg/day, twelve weeks
Experimental: Thirty elderly subjects with secondary hyperparathyroidism are enrolled in an open label study. The selected subjects have ages between 60 and 100 years and have elevated serum PTH levels (greater than the upper limit of young normal range). Subjects also have femoral neck osteopenia (femoral neck bone mineral density of […]).
Subjects are requested to keep a diet providing approximately 500 mg calcium per day without the use of calcium supplements. For a twelve week treatment period, subjects self-administer orally 2.5 μg/day 1α-OH-vitamin D2.(i.e., 2.5 μg doxercalciferol, 2.5% w/w benzyl alcohol, 0.5%–2.5% w/w TWEEN™-20, and 20 ppm BHT) At regular intervals throughout the treatment period, subjects are monitored for serum PTH levels, serum calcium and phosphorus, and urine calcium and phosphorus levels. Efficacy is evaluated by pre- and post-treatment comparisons of serum PTH levels. Safety is evaluated by serum and urine calcium and phosphorus values.

[2] = tested on: End Stage Renal Disease patients with secondary hyperparathyroidism; assay: Double-blind placebo-controlled study in ESRD hemodialysis patients exhibiting secondary hyperparathyroidism; assay type: in vivo, human
Text: Up to 120 ESRD (End Stage Renal Disease) patients undergoing chronic hemodialysis are studied in a multicenter, double-blind, placebo-controlled study based in two major U.S. metropolitan areas. The selected patients reside in two major metropolitan areas within the continental U.S., have ages between 20 and 75 years and have a history of secondary hyperparathyroidism. They have been on hemodialysis for at least four months, have a normal (or near normal) serum albumin, and have controlled serum phosphorus (often by using oral calcium phosphate binders).
On admission to the study, each patient is assigned at random to one of two treatment groups. One of these groups receives two consecutive 12-week courses of therapy with 1α-OH-vitamin D2 (doxercalciferol); the other receives a 12-week course of therapy with 1α-OH-vitamin D2 followed, without interruption, by a 12-week course of placebo therapy. Each patient discontinues any 1, α,25-(OH)2-vitamin D3 therapy for eight weeks prior to initiating 1α-OH-vitamin D2 therapy (daily dose of 4 μg doxercalciferol, formulated with 2.5% w/w benzyl alcohol, 0.5%–2.5% w/w TWEEN™-20, and 20 ppm BHT). Throughout this eight-week washout (or control) period and the two subsequent 12-week treatment periods, patients are monitored weekly for serum calcium and phosphorus. Serum intact PTH is monitored weekly or biweekly, and bone-specific serum markers, serum vitamin D metabolites, serum albumin, blood chemistries, hemoglobin and hematocrit are monitored at selected intervals.
During the study, patients undergo routine hemodialysis (three times per week) using a 1.24 mM calcium dialysate and ingest calcium phosphate binders (such as calcium carbonate or calcium acetate) in an amount sufficient to keep serum phosphate controlled (6.9 mg/dL). Patients who develop persistent mild hypercalcemia or mild hyperphosphatemia during the treatment periods reduce their 1α-OH-vitamin D2 to 4 μg three times per week (or lower). Patients who develop marked hypercalcemia or marked hyperphosphatemia immediately suspend treatment. Such patients are monitored at twice weekly intervals until the serum calcium or phosphorus is normalized, and resume 1α-OH-vitamin D2 dosing at a rate which is 4 μg three times per week (or lower).

[3] = tested on: patients with advanced androgen-independent prostate cancer; assay: Study of Example 7 repeated for 1α-(OH)D2 in prostate cancer; assay type: in vivo, human; conditions: for progression of metastatic disease (CAT scans, X-rays, bone scans): phase two, after two years
Text: (§1) Patients with advanced androgen-independent prostate cancer participate in an open-labeled study of 1α,24-(OH)2D2. […] On admission to the study, patients begin a course of therapy with intravenous 1α,24-(OH)2D2 lasting 26 weeks, while discontinuing any previous use of calcium supplements, vitamin D supplements, and vitamin D hormone replacement therapies. During treatment, the patients are monitored at regular intervals for: (1) hypercalcemia, hyperphosphatemia, hypercalciuria, hyperphosphaturia and other toxicity; (2) evidence of changes in the progression of metastatic disease; and (3) compliance with the prescribed test drug dosage.
(§2) The study is conducted in two phases. During the first phase, the maximal tolerated dosage (MTD) of daily 1α,24-(OH)2D2 is determined by administering progressively higher dosages to successive groups of patients. All doses are administered in the morning before breakfast. The first group of patients is treated with 25.0 μg of 1α,24-(OH)2D2 (formulated with 2.5% w/w benzyl alcohol, 0.5%–2.5% w/w TWEEN™-20, and 20 ppm BHT). Subsequent groups of patients are treated with 50.0, 75.0 and 100.0 μg/day. Dosing is continued uninterrupted for the duration of the study unless serum calcium exceeds 11.6 mg/dL, or other toxicity of grade 3 or 4 is observed, in which case dosing is held in abeyance until resolution of the observed toxic effect(s) and then resumed at a level which has been decreased by 10.0 μg.
(§3) During the second phase, patients are treated with 1α,24-(OH)2D2 for 24 months at 0.5 and 1.0 times the MTD.
The study of Example 7 is repeated for the active vitamin D compound, 1α-(OH)D2 (formulated with 2.5% w/w benzyl alcohol, 0.5%–2.5% w/w TWEEN™-20, and 20 ppm BHT). […] In summary, the present invention provides an improved formulation for lipophilic drug agents that are only slightly soluble in an aqueous vehicle. The formulation in addition to the lipophilic drug agent includes a lipophilic antioxidant, a non-ionic solubilizer or surfactant, and optionally, an agent which is an organic solvent/ preservative.

[4] = tested on: patients with advanced androgen-independent prostate cancer; assay: Open-labeled clinical study of 1α,24-(OH)2D2 in advanced androgen-independent prostate cancer; assay type: in vivo; conditions: for progression of metastatic disease (CAT scans, X-rays, bone scans): second phase, after one and two years
Text: as §1, §2, §3

[5] = treated with the MTD for at least six months

SMILES | PTH levels, pre- and post-treatment comparison [1] | incidence of hypercalcemia, hyperphosphatemia, hypercalciuria and hyperphosphaturia [1] | reduction of serum PTH levels (study conclusion) ([2]; ESRD patients) | mean serum PTH after initiation of dosing ([2]; ESRD patients, daily dose of 4 μg doxercalciferol formulated with benzyl alcohol, TWEEN-20, BHT) | safety compared with currently used therapies (study conclusion) ([2]; despite higher dosages and concurrent high levels of oral calcium phosphate binder) | serum levels of calcium and phosphorus ([2]; end of first 12-week treatment period, for end stage renal disease patients) | hypercalcemia ([2]; patients exhibiting excessive suppression of serum PTH, corrected by dosage reduction) | progression of metastatic disease (CAT scans, X-rays, bone scans) ([3]; higher dosage) | progression of metastatic disease (CAT scans, X-rays, bone scans) ([3]; lower dosage) | bone pain associated with metastatic disease [3, 5] | circulating levels of 1α,25-(OH)2D2 ([4]; blood samples of patients treated with 1α,24-(OH)2D2) | dose dependence of levels of circulating 1α,24-(OH)2D2 ([4]; human, in vivo) | maximum levels of circulating 1α,24-(OH)2D2 ([4]; human, in vivo) | serum and urine calcium ([4]; human, in vivo) | progression of metastatic disease (CAT scans, X-rays, bone scans) ([4]; higher dosage (1.0 times the MTD)) | progression of metastatic disease (CAT scans, X-rays, bone scans) ([4]; lower dosage (0.5 times the MTD)) | bone pain associated with metastatic disease [4, 5]
C=C1/C(=C\C=C2/CCC[C@]3(C)[C@@H]([C@H](C)/C=C/[C@H](C)C(C)C)CC[C@@H]23)C[C@@H](O)C[C@@H]1O [1α-OH-vitamin D2, 1α-hydroxyvitamin D2] | significantly reduce PTH levels | insignificant incidence | effective in reducing serum PTH levels | less than 50 % of pretreatment levels | safer than currently used therapies | normal or near normal | transient mild hypercalcemia is observed | stable disease and partial or complete remission in many patients | stable disease or partial remission in many patients | significantly diminished | – | – | – | – | – | – | –
C=C1/C(=C\C=C2/CCC[C@]3(C)[C@@H]([C@H](C)/C=C/C(C)(O)C(C)C)CC[C@@H]23)C[C@H](O)C[C@H]1O (stereo partly drawn) [1α,24-(OH)2D2, 1α,24-dihydroxyvitamin D2] | – | – | – | – | – | – | – | – | – | – | suppressed, often to undetectable levels | increase proportionately with the dosage administered | above 100 pg/mL | elevated in a dose responsive manner | stable disease and partial or complete remission in many patients | stable disease or partial remission in many patients | significantly diminished
